Results reported in ChEMBL document CHEMBL1201862, “PubChem BioAssay data set” (2004).
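Compound exposure: 48 hours, 5 concentrations, 96-well plates. GI50 is the concentration that inhibits growth by half.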 Calls of active or inactive are those of the source. No stated cut-off is given here; in the data, active = GI50 up to about 1.1 µM and inactive = higher.

Tests used:
Assay in all cases: inhibition of tumour cell growth, NCI panel, 48 h
[1] = test system: A498
[2] = test system: CCRF-CEM
[3] = test system: HCC 2998
[4] = test system: SF-539
[5] = test system: PC-3
[6] = test system: OVCAR-8
[7] = test system: HL-60
[8] = test system: SK-OV-3
[9] = test system: CAKI-1
[10] = test system: HCT-15
[11] = test system: OVCAR-4
[12] = test system: HCT-116
[13] = test system: U-251
[14] = test system: BT-549
[15] = test system: HOP-62
[16] = test system: A549
[17] = test system: SNB-75
[18] = test system: KM12
[19] = test system: SK-MEL-5
[20] = test system: UACC-62
[21] = test system: LOX IMVI
[22] = test system: SN12C
[23] = test system: Hs-578T
[24] = test system: NCI/ADR-RES
[25] = test system: SR
[26] = test system: OVCAR-5
[27] = test system: MOLT-4
[28] = test system: IGROV-1
[29] = test system: UO-31
[30] = test system: TK-10
[31] = test system: SF-295
[32] = test system: NCI-H23
[33] = test system: SK-MEL-28
[34] = test system: NCI-H226
[35] = test system: EKVX
[36] = test system: Malme-3M
[37] = test system: MCF7
[38] = test system: OVCAR-3
[39] = test system: SW-620
[40] = test system: K562
[41] = test system: MDA-N
[42] = test system: NCI-H460
[43] = test system: COLO 205
[44] = test system: 786-0
[45] = test system: HOP-92
[46] = test system: RXF 393
[47] = test system: M14
[48] = test system: SK-MEL-2
[49] = test system: HT-29
[50] = test system: SNB-19
[51] = test system: MDA-MB-231
[52] = test system: UACC-257
[53] = test system: ACHN
[54] = test system: RPMI-8226
[55] = test system: NCI-H522
[56] = test system: SF-268
[57] = test system: MDA-MB-435
[58] = test system: DU-145
[59] = test system: T47D

In the case of `CC1N(O)C(c2ccccc2)C(c2ccccc2)=[N+]1[O-]` (stereo unspecified), the GI50 [1] is reported as > 100 µM (inactive), the GI50 [2] is reported as > 100 µM (inactive) and the GI50 [3] is reported as > 100 µM (inactive). The GI50 [4] was > 100 µM (inactive), the GI50 [5] was > 100 µM (inactive) and the GI50 [6] was > 100 µM (inactive). The GI50 [7] was > 100 µM (inactive), the GI50 [8] was > 100 µM (inactive) and the GI50 [9] was > 100 µM (inactive). The GI50 [10] was over 100 µM, the GI50 [11] was > 100 µM (inactive) and the GI50 [12] was > 100 µM (inactive). For the same molecule, the GI50 [13] was > 100 µM (inactive), the GI50 [14] was > 100 µM (inactive) and the GI50 [15] was > 100 µM (inactive). The GI50 [16] was > 100 µM (inactive), the GI50 [17] was 84.3 µM (inactive) and the GI50 [18] was > 100 µM (inactive). The GI50 [19] was > 100 µM (inactive), the GI50 [20] was > 100 µM (inactive) and the GI50 [21] was > 100 µM (inactive). The GI50 [22] was > 100 µM (inactive), the GI50 [23] was > 100 µM (inactive) and the GI50 [24] was > 100 µM (inactive). For the same molecule, the GI50 [25] was > 100 µM (inactive), the GI50 [26] was > 100 µM (inactive) and the GI50 [27] was > 100 µM (inactive). For the same molecule, the GI50 [28] was > 100 µM (inactive), the GI50 [29] was > 100 µM (inactive) and the GI50 [30] was > 100 µM (inactive). For the same molecule, the GI50 [31] was > 100 µM (inactive), the GI50 [32] was > 100 µM (inactive) and the GI50 [33] was > 100 µM (inactive). The GI50 [34] was > 100 µM (inactive), the GI50 [35] was > 100 µM (inactive) and the GI50 [36] was > 100 µM (inactive). The GI50 [37] was > 100 µM (inactive), the GI50 [38] was > 100 µM (inactive) and the GI50 [39] was > 100 µM (inactive). For the same molecule, the GI50 [40] was > 100 µM (inactive), the GI50 [41] was > 100 µM (inactive) and the GI50 [42] was > 100 µM (inactive). For the same molecule, the GI50 [43] was > 100 µM (inactive), the GI50 [44] was > 100 µM (inactive) and the GI50 [45] was > 100 µM (inactive). The GI50 [46] was > 100 µM (inactive), the GI50 [47] was > 100 µM (inactive) and the GI50 [48] was > 100 µM (inactive). The GI50 [49] was > 100 µM (inactive), the GI50 [50] was > 100 µM (inactive) and the GI50 [51] was > 100 µM (inactive). For the same molecule, the GI50 [52] was > 100 µM (inactive) and the GI50 [53] was > 100 µM (inactive).

With `O=C1/C(=C/c2cccc(F)c2)CCCc2ccccc21` the GI50 [2] was 15.5 µM (inactive), the GI50 [54] was 14.9 µM (inactive) and the GI50 [3] was 14.7 µM (inactive). The GI50 [4] was 17.4 µM (inactive), the GI50 [5] was 15.7 µM (inactive) and the GI50 [6] was 15.8 µM (inactive). The GI50 [55] was 12.9 µM (inactive), the GI50 [7] was 21.5 µM (inactive) and the GI50 [8] was 27.2 µM (inactive). For the same molecule, the GI50 [9] was 17.7 µM (inactive), the GI50 [10] was 15.9 µM and the GI50 [11] was 16.7 µM (inactive). For the same molecule, the GI50 [12] was 15.6 µM (inactive), the GI50 [13] was 16.2 µM (inactive) and the GI50 [14] was 17.6 µM (inactive). The GI50 [15] was 14.3 µM (inactive), the GI50 [16] was 17.7 µM (inactive) and the GI50 [17] was 17.3 µM (inactive). For the same molecule, the GI50 [56] was 12.9 µM (inactive), the GI50 [18] was 12.1 µM (inactive) and the GI50 [20] was 15.3 µM (inactive). The GI50 [21] was 16.5 µM (inactive), the GI50 [22] was 17.9 µM (inactive) and the GI50 [23] was 13.2 µM (inactive). The GI50 [24] was 16.5 µM (inactive), the GI50 [25] was 14.7 µM (inactive) and the GI50 [26] was 15.1 µM (inactive). The GI50 [27] was 17.7 µM (inactive), the GI50 [28] was 12.2 µM (inactive) and the GI50 [29] was 16.3 µM (inactive). For the same molecule, the GI50 [30] was 15.7 µM (inactive), the GI50 [31] was 16.1 µM (inactive) and the GI50 [57] was 16.2 µM (inactive). The GI50 [32] was 20.4 µM (inactive), the GI50 [58] was 16.9 µM (inactive) and the GI50 [33] was 16.6 µM (inactive). The GI50 [34] was 14.6 µM (inactive), the GI50 [35] was 15 µM (inactive) and the GI50 [36] was 11.6 µM (inactive). The GI50 [37] was 14.6 µM (inactive), the GI50 [38] was 15.3 µM (inactive) and the GI50 [39] was 16.9 µM (inactive). The GI50 [40] was 15.1 µM (inactive), the GI50 [42] was 17.4 µM (inactive) and the GI50 [43] was 20.3 µM (inactive). The GI50 [44] was 17.2 µM (inactive), the GI50 [45] was 15.8 µM (inactive) and the GI50 [47] was 13.9 µM (inactive). The GI50 [48] was 16.2 µM (inactive), the GI50 [49] was 13.2 µM (inactive) and the GI50 [50] was 16 µM (inactive). For the same molecule, the GI50 [51] was 18.3 µM (inactive), the GI50 [52] was 16.9 µM (inactive) and the GI50 [53] was 19.1 µM (inactive).

With `COC(=O)[C@@H](Cc1ccccc1)NNC(=O)OC(C)(C)C` the GI50 [1] was > 100 µM (inactive), the GI50 [2] was > 100 µM (inactive) and the GI50 [54] was > 100 µM (inactive). The GI50 [3] was > 100 µM (inactive), the GI50 [4] was > 100 µM (inactive) and the GI50 [5] was > 100 µM (inactive). The GI50 [6] was > 100 µM (inactive), the GI50 [55] was > 100 µM (inactive) and the GI50 [7] was > 100 µM (inactive). The GI50 [8] was > 100 µM (inactive), the GI50 [10] was over 100 µM and the GI50 [11] was > 100 µM (inactive). For the same molecule, the GI50 [12] was > 100 µM (inactive), the GI50 [13] was > 100 µM (inactive) and the GI50 [14] was > 100 µM (inactive). For the same molecule, the GI50 [15] was > 100 µM (inactive), the GI50 [16] was > 100 µM (inactive) and the GI50 [59] was > 100 µM (inactive). The GI50 [56] was > 100 µM (inactive), the GI50 [18] was > 100 µM (inactive) and the GI50 [19] was > 100 µM (inactive). For the same molecule, the GI50 [20] was > 100 µM (inactive), the GI50 [21] was > 100 µM (inactive) and the GI50 [22] was > 100 µM (inactive). The GI50 [23] was > 100 µM (inactive), the GI50 [24] was > 100 µM (inactive) and the GI50 [25] was > 100 µM (inactive). The GI50 [26] was > 100 µM (inactive), the GI50 [27] was > 100 µM (inactive) and the GI50 [28] was > 100 µM (inactive). For the same molecule, the GI50 [30] was > 100 µM (inactive), the GI50 [31] was > 100 µM (inactive) and the GI50 [57] was > 100 µM (inactive). The GI50 [32] was > 100 µM (inactive), the GI50 [58] was > 100 µM (inactive) and the GI50 [33] was > 100 µM (inactive). For the same molecule, the GI50 [35] was > 100 µM (inactive), the GI50 [36] was > 100 µM (inactive) and the GI50 [37] was > 100 µM (inactive). For the same molecule, the GI50 [38] was > 100 µM (inactive), the GI50 [39] was > 100 µM (inactive) and the GI50 [40] was > 100 µM (inactive). The GI50 [42] was > 100 µM (inactive), the GI50 [43] was > 100 µM (inactive) and the GI50 [44] was > 100 µM (inactive). For the same molecule, the GI50 [46] was > 100 µM (inactive), the GI50 [51] was > 100 µM (inactive) and the GI50 [52] was > 100 µM (inactive). The GI50 [53] was > 100 µM (inactive).
